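Test compounds were applied to cells in 96-well plates for 48 hours at 5 doses. Abbreviation: GI50, concentration required for 50% inhibition of growth.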 The source made the active and inactive calls. No stated cut-off is given here; in the data, active = GI50 up to about 1.1 µM and inactive = higher.

Experimental findings from ChEMBL document CHEMBL1201862, “PubChem BioAssay data set” (2004) are described below.

Some test systems named below: HT-29; HCC 2998; Hs-578T; HCT-15; A549; T47D; HCT-116; 786-0; EKVX; PC-3; UO-31; OVCAR-3; NCI-H522; KM12; RPMI-8226; NCI-H460; SF-539; M14; BT-549; MDA-N.
Holding throughout (assay): inhibition of tumour cell growth, NCI panel, 48 h

Regarding `CC(C)(C)c1ccc(OCCOc2ccc(C(C)(C)C)cc2N)c(N)c1`, the GI50 in the test on HT-29 was 10 µM (inactive); with HCC 2998, > 100 µM (inactive); in the test on Hs-578T it was 24.2 µM (inactive); in the test with HCT-15 it was 37.5 µM; with A549, 26.2 µM (inactive); in the test with T47D, 25.6 µM (inactive). Moreover, the GI50 was > 100 µM (inactive) in the test with HCT-116; 29.9 µM (inactive) in the test with 786-0; > 100 µM (inactive) with EKVX; > 100 µM (inactive) in the test on PC-3; > 100 µM (inactive) in the test on UO-31; > 100 µM (inactive) in the test with OVCAR-3. For the same molecule, the GI50 in the test on NCI-H522 is 11.4 µM (inactive); in the test on KM12, > 100 µM (inactive); with RPMI-8226, 9.89 µM (inactive); in the test on NCI-H460, > 100 µM (inactive); in the test on SF-539 it was > 100 µM (inactive); in the test on M14, > 100 µM (inactive). In addition, the GI50 in the test on BT-549 is 91 µM (inactive).

For the molecule `Cc1cc(S(=O)(=O)NC2=NNC(C)CN2)c(S)cc1Cl` (stereo unspecified), the GI50 in the test with HT-29 was 62.2 µM (inactive); with HCC 2998, 37.3 µM (inactive); with HCT-15 it was 32.1 µM; in the test on A549, 37.9 µM (inactive); in the test on T47D, 37.8 µM (inactive); in the test on MDA-N it was 39.6 µM (inactive). For the same molecule, the GI50 in the test on HCT-116 is 38.4 µM (inactive); with 786-0, 35 µM (inactive); with EKVX, 96.6 µM (inactive); in the test with PC-3 it was 63.7 µM (inactive); in the test on UO-31, 51.5 µM (inactive); in the test on OVCAR-3 it was 53.7 µM (inactive). For the same molecule, the GI50 is 22.3 µM (inactive) in the test with NCI-H522; 61.8 µM (inactive) with KM12; 20.1 µM (inactive) in the test on RPMI-8226; 54.2 µM (inactive) with NCI-H460; 43.9 µM (inactive) with SF-539; 27.7 µM (inactive) in the test on M14. Moreover, in the test with BT-549, the GI50 is 49.3 µM (inactive).

For `COc1ccc(-[n+]2nc(S(=O)(=O)O)c(/C=C/c3ccc(N(C)C)cc3)cc2C#N)cc1`, the GI50 in the test on HT-29 is > 100 µM (inactive); with HCC 2998, > 100 µM (inactive); in the test with Hs-578T, > 100 µM (inactive); in the test on HCT-15, above 100 µM; with A549, > 100 µM (inactive); in the test on T47D, > 100 µM (inactive). For the same molecule, the GI50 in the test on HCT-116, in the test with 786-0, in the test with EKVX, with PC-3, in the test with UO-31 and in the test with OVCAR-3 was > 100 µM (inactive) throughout. Moreover, the GI50 in the test with NCI-H522, in the test on KM12, in the test with RPMI-8226, in the test on SF-539, in the test on M14 and in the test on BT-549 was > 100 µM (inactive) in each case.

For the molecule `O=C1Nc2ccccc2/C1=N/NC(=S)Nc1ccc(Cl)cc1`, the GI50 was 41 µM (inactive) in the test with HT-29; > 100 µM (inactive) in the test with HCC 2998; > 100 µM (inactive) in the test with Hs-578T; 20.2 µM in the test on HCT-15; 34.6 µM (inactive) in the test with A549; 83 µM (inactive) in the test with T47D. Besides, the GI50 with MDA-N was 63.7 µM (inactive); with HCT-116, 24.9 µM (inactive); with 786-0 it was 22.3 µM (inactive); with EKVX it was 36.2 µM (inactive); in the test on PC-3, 33.7 µM (inactive); in the test on UO-31 it was 38.8 µM (inactive). Further, the GI50 in the test on OVCAR-3 was 25.8 µM (inactive); in the test with NCI-H522, 57 µM (inactive); with KM12, 5.77 µM (inactive); in the test with RPMI-8226 it was 49.7 µM (inactive); with NCI-H460, 15.5 µM (inactive); in the test on SF-539 it was 29.2 µM (inactive). The GI50 with M14 is 15 µM (inactive).

Consider `COC(=O)C1=C(C)NC(C)=C(C(=O)OC)C1c1ccccc1NO`, for which the GI50 with HT-29 was > 100 µM (inactive); in the test on HCC 2998, > 100 µM (inactive); with Hs-578T, > 100 µM (inactive); in the test on HCT-15, above 100 µM; in the test with A549 it was > 100 µM (inactive); with T47D, > 100 µM (inactive). The GI50 with HCT-116 is 21.9 µM (inactive); with 786-0 it was > 100 µM (inactive); with EKVX, > 100 µM (inactive); in the test on PC-3, > 100 µM (inactive); with UO-31, > 100 µM (inactive); with OVCAR-3 it was > 100 µM (inactive). The GI50 was > 100 µM (inactive) in the test on NCI-H522; > 100 µM (inactive) in the test with KM12; 48.9 µM (inactive) in the test with RPMI-8226; > 100 µM (inactive) in the test with NCI-H460; > 100 µM (inactive) with SF-539; > 100 µM (inactive) in the test on M14. Moreover, in the test with BT-549, the GI50 is > 100 µM (inactive).

On to `CSc1cc(Cl)c(C)cc1S(=O)(=O)NC(=O)NNc1cnc2ccccc2n1`, for which the GI50 was > 100 µM (inactive) in the test on HT-29; > 100 µM (inactive) in the test on HCC 2998; > 100 µM (inactive) with Hs-578T; above 100 µM in the test with HCT-15; > 100 µM (inactive) in the test with A549; > 100 µM (inactive) in the test on T47D. Moreover, the GI50 in the test on MDA-N, in the test on HCT-116, in the test on 786-0, with EKVX, in the test on PC-3 and in the test with OVCAR-3 was > 100 µM (inactive) each time. The GI50 with NCI-H522, with KM12, with NCI-H460, in the test on SF-539 and in the test with M14 was > 100 µM (inactive) throughout.

In the case of `COc1ccc(-c2nc(SCC(=O)N/N=C/c3ccc(O)c(OC)c3)[nH]c2-c2ccc(OC)cc2)cc1`, the GI50 in the test with HT-29 was 21.9 µM (inactive); in the test with HCC 2998, 17.7 µM (inactive); with HCT-15 it was 24.2 µM; with A549, 34.9 µM (inactive); with T47D, 22.7 µM (inactive); in the test on MDA-N, 22.1 µM (inactive). Moreover, the GI50 in the test with HCT-116 is 17.9 µM (inactive); with 786-0, 19.8 µM (inactive); in the test with EKVX it was 33.3 µM (inactive); in the test with PC-3 it was 27.1 µM (inactive); in the test with UO-31, 34.7 µM (inactive); in the test on OVCAR-3, 18.8 µM (inactive). Moreover, the GI50 in the test with NCI-H522 is 19.2 µM (inactive); in the test with KM12, 33.3 µM (inactive); with NCI-H460, 23.2 µM (inactive); in the test on SF-539, 21.4 µM (inactive); in the test with M14, 22.9 µM (inactive); in the test on BT-549 it was 22.1 µM (inactive).

For the molecule `Cc1cc(C#N)c(Nc2c(C)cccc2[N+](=O)[O-])s1`, the GI50 in the test with HCC 2998 is 87.7 µM (inactive); in the test with HCT-15 it was 50 µM; in the test with A549, 46.3 µM (inactive); in the test on T47D it was 12.4 µM (inactive); in the test on MDA-N it was 97.7 µM (inactive); with HCT-116, 73.8 µM (inactive). The GI50 with 786-0 is 26.9 µM (inactive); with EKVX it was 27.3 µM (inactive); with PC-3 it was 17.3 µM (inactive); with UO-31, > 100 µM (inactive); with OVCAR-3 it was 29.5 µM (inactive); with NCI-H522, 30.4 µM (inactive). Moreover, the GI50 in the test on KM12 is > 100 µM (inactive); in the test with RPMI-8226 it was > 100 µM (inactive); with NCI-H460, 76.4 µM (inactive); in the test with SF-539, 43.2 µM (inactive); in the test on M14, > 100 µM (inactive); in the test with BT-549 it was 24.3 µM (inactive).

Turning to `Cc1csc(-n2c(C)nc3cc(Cl)ccc3c2=O)n1`, the GI50 in the test on HT-29 is > 100 µM (inactive); in the test with HCC 2998, > 100 µM (inactive); in the test with HCT-15, 67.5 µM; in the test with A549 it was > 100 µM (inactive); in the test with MDA-N it was > 100 µM (inactive); in the test with HCT-116 it was > 100 µM (inactive). The GI50 in the test on 786-0 is > 100 µM (inactive); in the test with EKVX, 8.02 µM (inactive); with PC-3 it was > 100 µM (inactive); in the test on UO-31 it was 58.2 µM (inactive); in the test on OVCAR-3, 78.9 µM (inactive); with NCI-H522 it was 22.2 µM (inactive). The GI50 in the test with KM12, with NCI-H460, with SF-539, with M14 and in the test on BT-549 was > 100 µM (inactive) each time.

On to `CS(=O)(=O)c1nc(-c2cc3c(c(S(C)(=O)=O)n2)CCCC3)cc2c1CCCCC2`, for which the GI50 was > 100 µM (inactive) in the test with HT-29; above 100 µM with HCT-15; > 100 µM (inactive) in the test on A549; > 100 µM (inactive) in the test with MDA-N; > 100 µM (inactive) in the test on HCT-116; > 100 µM (inactive) in the test on 786-0. Moreover, the GI50 with EKVX was > 100 µM (inactive); in the test on PC-3, > 100 µM (inactive); with UO-31, 0.0206 µM (active); in the test with OVCAR-3, > 100 µM (inactive); in the test on NCI-H522, 21.1 µM (inactive); with KM12 it was > 100 µM (inactive). The GI50 with RPMI-8226, with M14 and with BT-549 was > 100 µM (inactive) throughout.

As to `COc1ccc(-c2nc(-c3cc4c(ccc5ccccc54)oc3=O)cs2)cc1`, the GI50 with HT-29 was > 100 µM (inactive); with HCC 2998 it was > 100 µM (inactive); with Hs-578T, > 100 µM (inactive); in the test on HCT-15, above 100 µM; with A549 it was > 100 µM (inactive); in the test with T47D it was > 100 µM (inactive). The GI50 with HCT-116 was 59.8 µM (inactive); in the test on 786-0 it was 33.2 µM (inactive); in the test on EKVX it was > 100 µM (inactive); in the test with PC-3 it was > 100 µM (inactive); in the test with UO-31, > 100 µM (inactive); in the test with KM12, > 100 µM (inactive). The GI50 in the test with RPMI-8226, in the test with NCI-H460, in the test with SF-539, with M14 and in the test with BT-549 was > 100 µM (inactive) throughout.
